Test results taken from patent US11103432B2, “Use of 1,3 diglyceride in a topical composition for countering the weakening of the skin barrier” (PIERRE FABRE DERMO-COSMETIQUE, priority 2015, dated 2021).
“And” between values parts separate entries of the source, which are not always exact repeats. Identical values can stand only once. Like-named read-outs stand apart in the source and are kept apart here.

Tests used:
[1] = ATR-FTIR of lipids extracted from forearm stratum corneum with added diglyceride (vCH2 vibration); assay type: physicochemical; conditions: 40° C., 3 μg of diglyceride for 30 μg of sample; for influence on the organisation of the intercorneocytory lipids (vCH2, FIG. 2): versus extract devoid of diglyceride
Excerpt: In order to evaluate the change in the organisation of the lipid phases of the stratum corneum, the inventors used infrared spectroscopy (ATR-FTIR: Attenuated total reflectance—Fourier transform infrared Spectroscopy) to analyse the variation, under the effect of the temperature, of the fundamental vibration bands of the vCH2 aliphatic chains of these lipids. More particularly, the position of the absorption band, corresponding to the stretching of the CH2, is located around wave number 2848 cm^−1. By way of example, an increase in the temperature of the surface of the skin causes a displacement of this bands to the higher wave numbers.
The study was carried out on lipids extracted from the stratum corneum of the forearm in order to have a model as close as possible to reality. We have used infrared spectroscopy (ATR-FTIR), to examine the variation, in function of temperature, of fundamental vCH2 vibration bands of aliphatic chains.
The tests were carried out in similar experimental conditions using lipids extracts from the forearm wherein a standardized quantity of diglyceride is added (3 μg of diglyceride for 30 μg of sample).
The test of the example 2 was reproduced with 1,2-distearoyl-rac-glycerol (1,2 diglyceride) and compared to the test carried out with glyceryl 1,3-distearate (1,3 diglyceride).

[2] = test system: intercorneocytory lipids of the skin; assay: In vivo ATR-FTIR on the inner forearm of healthy volunteers after application of glyceryl 1,3-distearate; set-up: species or system human; conditions: for Δ νCH2, Average / Δ νCH2, single subjects: 40° C., versus control zone
Experimental: This study was carried out on health volunteers. The collection of infrared data was done through the intermediary of the ATR-FTIR sensor on the inner face of the forearm on a zone of 10 cm^2.
A treated zone (with application in vivo of glyceryl 1,3 distearate) and a control zone (without application of glyceryl 1,3 distearate) were determined.
Two concentrations in glyceryl 1,3-distearate were evaluated (table 2: 0.5 mg/cm^2 and table 3: 0.15 mg/cm^2).
At T0: the skin is first heated to between 30 and 45° C.
Then after application in vivo of glyceryl 1,3-distearate on the treated zone, an evaluation is made of the variation in the wave number associated with the vCH2 vibration comparatively to the reference measurement without product applied (control zone) at different times after T0: T 30 minutes, T 1 h30 minutes and T 4 hours.
Tables 2 and 3: express the variation of the wave number associated with the vCH2 vibration of the aliphatic chains of the intercorneocytory lipids at 40° C. in the presence of glyceryl 1,3-distearate comparatively to the reference measurement without glyceryl 1,3-distearate.

[3] = test system: stratum corneum lipids of human skin explants; assay: FTIR measurement of human skin explants with or without pre-treatment (position of CH2 symmetric stretching band)
Experimental: The skin samples were heated at the rate of 1° C./min, and spectra were collected between 28° C. and 43° C.
Lipids organization—FTIR measurement: After 30 min of pre-treatment, FTIR measurements were performed to evaluate the molecular organization of the lipid matrix in the stratum corneum. The procedure is based on the study of the position of the CH2 symmetric stretching band, around 2850 cm^−1, depending on the temperature: the skin samples were heated at the rate of 1° C./min and spectra were collected between 28° C. and 43° C. with and without pre-treatment. The position of the CH2 symmetric stretching band is characteristic of the lipid organization and can be related to the barrier function.
FTIR measurement of skin explant (position of CH2 symmetric stretching band) depending on the temperature;
FTIR measurements were performed on human skin explants (8 donors) with or without pre-treatment. The skin samples were heated at the rate of 1° C./min, and spectra were collected between 28° C. and 43° C.

Human skin = assay: Benzo[a]pyrene skin penetration study, Franz diffusion cell; assay type: in vitro ADME; conditions: for B(a)P at Surface, percentage of the applied dose (Mean) / B(a)P in Receptor fluid, percentage of the applied dose (Mean) / B(a)P in Skin, percentage of the applied dose (Mean) / B(a)P in Stratum corneum, percentage of the applied dose (Mean): n = 8
Experimental: (§1) In order to evaluate the impact of 1,3-diglycerides on the organization of stratum corneum lipids and barrier function, in vitro, skin penetration studies of a known pollutant (benzo[a]pyrene (B(a)P) has been developed and performed. On the same donors, FTIR (Fourier transform infrared) measurement and B(a)P skin penetration were assessed to link lipid organization and the “outside-in” skin barrier function modulations, when the skin is heated up to 42° C.
(§2) Secondly, the impact of pre-treatment with 3% and 15% of glyceryl 1,3 distearate formulated in dimethicone on the modification of the SC (stratum corneum) lipid organization and B(a)P skin penetration provoked by the temperature elevation has been evaluated.
(§3) • OECD Guidelines for the testing of chemicals: guideline 428, skin absorption: in vitro method (13 Apr. 2004); • SCCS Guidelines, basic criteria for the in-vitro assessment of dermal absorption of cosmetics ingredients, updated March 2006.
(§4) For the skin delivery study, two temperatures were set. The classical temperature at the surface of the skin for skin delivery studies is 32° C. This temperature corresponds to the temperature at the surface of the skin in vivo. […]
(§5) The skin penetration study was carried out on 8 donors, the same donor was used for all the conditions:
(§6) The study was carried out on 8 donors, the same donor was used for all the conditions. B(a)P recovery should be comprised between 85% and 115% of the applied dose, in accordance with OECD 428 and SCCS guidelines.
(§7) • % of the applied dose at surface, stratum corneum, skin and receptor fluid; • μg/cm^2 of B(a)P at surface, stratum corneum, skin and receptor fluid. Results were presented with 2 decimals for the percentages and the quantities in μg/cm^2. Formula used in this report: • Standard error of the mean: • sem=Sd/√n • Bioavailability:
(§8) Sum of the quantities found in the skin and receptor fluid.
(§9) The inter-group comparison was performed by a paired Student's t-test with Graph Pad Prism software. The statistical analysis can be interpreted if n>5.

[4] = as above; assay type: in vitro ADME, human; conditions: human, without pre-treatment, 24 h, read-out: bioavailability (skin + receptor fluid) of benzo[a]pyrene, % of the dose applied to the skin
Experimental: as §1, §2, §3, §4, §5, §6, §7, §8, §9

[5] = 0.15 mg/cm^2 (table title), 30 min
[6] = 0.15 mg/cm^2 (table title), 1 h 30
[7] = 0.15 mg/cm^2 (table title), 4 h
[8] = 3% pre-treatment in dimethicone, 32° C., 24 h
[9] = 3% pre-treatment in dimethicone, 42° C., 24 h
[10] = 15% pre-treatment in dimethicone, 32° C., 24 h
[11] = 15% pre-treatment in dimethicone, 42° C., 24 h

## CCCCCCCCCCCCCCCCCC(=O)OCC(O)COC(=O)CCCCCCCCCCCCCCCCC [glyceryl 1,3-distearate]
[1]
  Δ νCH2: variation in the wave number of the νCH2 vibration of the aliphatic chains of the intercorneocytory lipids, with or without diglyceride: -1.43 cm⁻¹
[2]; [5]
  Δ νCH2, Average: -2.02 cm⁻¹
  Δ νCH2, single subjects: -1.87 cm⁻¹ and -2.16 cm⁻¹
[2]; [6]
  Δ νCH2, Average: -2.08 cm⁻¹
  Δ νCH2, single subjects: -1.91 cm⁻¹ and -2.25 cm⁻¹
[2]; [7]
  Δ νCH2, Average: -1.89 cm⁻¹
  Δ νCH2, single subjects: -1.64 cm⁻¹ and -2.15 cm⁻¹
[2]; 0.5 mg/cm^2, 30 min
  Δ νCH2, Average: -2.46 cm⁻¹
  Δ νCH2, single subjects: -2.56 cm⁻¹ and -3.02 cm⁻¹ and -2.71 cm⁻¹
[2]; 0.5 mg/cm^2, 1 h 30
  Δ νCH2, Average: -2.41 cm⁻¹
  Δ νCH2, single subjects: -2.65 cm⁻¹ and -2.62 cm⁻¹ and -2.6 cm⁻¹
[2]; 0.5 mg/cm^2, 4 h
  Δ νCH2, Average: -2.17 cm⁻¹
  Δ νCH2, single subjects: -2.6 cm⁻¹ and -2.29 cm⁻¹ and -2.18 cm⁻¹
[2]; skin heated between 30 and 45° C.
  persistence of the stabilising effect after application: at least 4 hours
[2]; skin heated between 30 and 45° C., normal conditions of use
  organisation of the intercorneocytory spaces of the skin: stabilise the organisation of the intercorneocytory spaces
[3]; 3% in dimethicone as pre-treatment, 30 min, 43° C., basal 2852.12
  position of the CH2 symmetric stretching band: 2848.7 cm⁻¹
[3]; 3% pre-treatment, 28° C. to 43° C., 0.81 without pre-treatment
  shift of the CH2 symmetric stretching band induced by the heating of the skin: 0.05 cm⁻¹
[3]; pre-treatment with 3% or 15%, T tests, p value<0.05
  impact of the heating on the lipid organization: decrease significantly
Human skin; [8]
  B(a)P at Surface, percentage of the applied dose (Mean): 94.66%
  B(a)P in Receptor fluid, percentage of the applied dose (Mean): 0.05%
  B(a)P in Skin, percentage of the applied dose (Mean): 2.09%
  B(a)P in Stratum corneum, percentage of the applied dose (Mean): 0.82%
Human skin; [9]
  B(a)P at Surface, percentage of the applied dose (Mean): 90.39%
  B(a)P in Receptor fluid, percentage of the applied dose (Mean): 0.17%
  B(a)P in Skin, percentage of the applied dose (Mean): 5.18%
  B(a)P in Stratum corneum, percentage of the applied dose (Mean): 0.90%
Human skin; [10]
  B(a)P at Surface, percentage of the applied dose (Mean): 94.99%
  B(a)P in Receptor fluid, percentage of the applied dose (Mean): 0.04%
  B(a)P in Skin, percentage of the applied dose (Mean): 1.87%
  B(a)P in Stratum corneum, percentage of the applied dose (Mean): 0.77%
Human skin; [11]
  B(a)P at Surface, percentage of the applied dose (Mean): 92.68%
  B(a)P in Receptor fluid, percentage of the applied dose (Mean): 0.15%
  B(a)P in Skin, percentage of the applied dose (Mean): 4.40%
  B(a)P in Stratum corneum, percentage of the applied dose (Mean): 0.75%
Human skin; dose of 3% or 15%, skin maintained in an atmosphere at 42° C.
  penetration of benzo[a]pyrene compared to the basal state and the vehicle: significant decrease

## c1ccc2c(c1)cc1ccc3cccc4ccc2c1c34 [B(a)P, benzo[a]pyrene, reference compound]
[4]; skin temperature 32° C.
  bioavailability at 24 h: ≤ 2.95%
[4]; skin temperature 42° C.
  bioavailability at 24 h: 6.95%
Human skin; human
  B(a)P concentration in the receptor fluid corresponding to the worst case: 12.51 µg/L
  percentage of B(a)P found in the receptor fluid, worst case: 0.13 % of the applied dose
Human skin; human, 24 h
  B(a)P recovered at the surface, % of the applied dose: up to 94.5%
Human skin; without pre-treatment, skin temperature 32° C., 24 h
  bioavailability (skin + receptor fluid) of benzo[a]pyrene, % of the dose applied to the skin: 2.95%

## CCCCCCCCCCCC(=O)OCC(O)COC(=O)CCCCCCCCCCC [1,3-dilauroylglycerol]
[1]
  influence on the organisation of the intercorneocytory lipids (vCH2, FIG. 2): no influence

## CCCCCCCCCCCCCCCCCC(=O)OCC(CO)OC(=O)CCCCCCCCCCCCCCCCC (racemic) [1,2-distearoyl-rac-glycerol]
[1]
  Δ νCH2: variation in the wave number of the νCH2 vibration of the aliphatic chains of the intercorneocytory lipids, with or without diglyceride: -0.65 cm⁻¹

## CCCCCCCCCC(=O)OCC(O)COC(=O)CCCCCCCCC [1,3-dicaprin]
[1]
  influence on the organisation of the intercorneocytory lipids (vCH2, FIG. 2): no influence
